Tests used:
[1] = Stability evaluation of solution formulation (Experimental Example 2); format: physicochemical; conditions: for Production rate of Alvocidib / Residual rate: solution formulation
Procedure: For Example 1, Example 2, Example 5, Example 6, Comparative Example 13 and Comparative Example 14, the attrition rate of the test compound and the conversion rate of the test compound to Alvocidib in a solution formulation were calculated by the following method.
Example 1, Example 2, Example 5, Example 6, Comparative Example 13 and Comparative Example 14 were each added to buffer solutions adjusted to pH 3.0, 4.0 and 5.0, respectively, at a concentration of 0.1 mg/mL, and left at 5° C. After 0, 1, 2 and 4 weeks, the residual rates of the compounds of Example 1, Example 2, […], Comparative Example 13 and Comparative Example 14 and the production rate of Alvocidib were determined by HPLC.
The buffer solutions used at each pH are as follows. • pH 3.0: 5 mM tartrate buffer solution/10% sucrose solution (pH 3.0) • pH 4.0: 5 mM tartrate buffer solution/10% sucrose solution (pH 4.0) • pH 5.0: 5 mM tartrate buffer solution/10% sucrose solution (pH 5.0)
(§1) The measurement conditions for HPLC are as follows.
• column: Acquity UPLC BEH C18, 1.7 um, 50×2.1 mm • column temperature: 40° C. • mobile phase: • A: water containing 0.1% trifluoroacetic acid • B: acetonitrile • A/B (min): • 80/20(0)→75/25(3)→0/100(3.5)→0/100(4)→80/20(4.01)→80/20(5) • flow rate: 0.8 mL/min • detection: ultraviolet visible detector, measurement wavelength 254 nm • injection: 3 μL

[2] = Evaluation of conversion rate to active form in buffer solution (Experimental Example 1); format: physicochemical
Procedure: For Examples 1 to 16 and Comparative Examples 1 to 14, the attrition rate of the test compound and the conversion rate of the test compound to Alvocidib in a buffer solution were calculated by the following method.
Examples 1 to 16 and Comparative Examples 1 to 14 were each left in buffer solutions adjusted to pH 5.0, 5.5, 6.0, 6.5, 7.0 and 7.4, respectively, at a concentration of 25 umol/L at 37° C. After 0, 0.5, 1, 2 and 3 hours, the residual rates of the compounds of Examples […] and the production rate of Alvocidib were determined by HPLC.
The buffer solutions used at each pH are as follows. • pH 5.0: 50 mM citrate buffer solution (pH 5.0) • pH 5.5: 50 mM citrate buffer solution (pH 5.5) • pH 6.0: 50 mM phosphate buffer solution (pH 6.0) • pH 6.5: 50 mM phosphate buffer solution (pH 6.5) • pH 7.0: 50 mM phosphate buffer solution (pH 7.0) • pH 7.4: 50 mM phosphate buffer solution (pH 7.4)
as §1

CN1CC[C@H](c2c(OC(=O)N(C)CCN)cc(O)c3c(=O)cc(-c4ccccc4Cl)oc23)[C@H](O)C1 [Comparative Example 13, reference compound]
Stability / conversion to Alvocidib in solution formulation at pH 3 ([1]; pH 3, 5° C., up to 4 weeks): stable
Stability / conversion to Alvocidib in solution formulation at pH 4 ([1]; pH 4, 5° C., up to 4 weeks): gradually converted to Alvocidib
production rate of Alvocidib / converted to Alvocidib ([1]; solution formulation pH 5, 5° C., after 4 weeks): about 40%
Production rate of Alvocidib ([1]; pH3.0, 0 week): 0.1%
Residual rate ([1]; pH3.0, 0 week): 99.6%
Production rate of Alvocidib ([1]; pH3.0, 1 week): 0.2%
Residual rate ([1]; pH3.0, 1 week): 99.3%
Production rate of Alvocidib ([1]; pH3.0, 2 week): 0.3%
Residual rate ([1]; pH3.0, 2 week): 99.5%
Production rate of Alvocidib ([1]; pH3.0, 4 week): 0.6%
Residual rate ([1]; pH3.0, 4 week): 99.1%
Production rate of Alvocidib ([1]; pH4.0, 0 week): 0.2%
Residual rate ([1]; pH4.0, 0 week): 99.4%
Production rate of Alvocidib ([1]; pH4.0, 1 week): 1.2%
Residual rate ([1]; pH4.0, 1 week): 98.1%
Production rate of Alvocidib ([1]; pH4.0, 2 week): 2.2%
Residual rate ([1]; pH4.0, 2 week): 97.4%
Production rate of Alvocidib ([1]; pH4.0, 4 week): 4.8%
Residual rate ([1]; pH4.0, 4 week): 94.4%
Production rate of Alvocidib ([1]; pH5.0, 0 week): 1.4%
Residual rate ([1]; pH5.0, 0 week): 98.1%
Production rate of Alvocidib ([1]; pH5.0, 1 week): 13.7%
Residual rate ([1]; pH5.0, 1 week): 84.3%
Production rate of Alvocidib ([1]; pH5.0, 2 week): 25.3%
Residual rate ([1]; pH5.0, 2 week): 71.7%
Production rate of Alvocidib ([1]; pH5.0, 4 week): 39.4%
Residual rate ([1]; pH5.0, 4 week): 55.9%
Production rate of Alvocidib ([2]; pH5.0, 0 hr): 0.0%
Residual rate ([2]; pH5.0, 0 hr): 99.8%
Stability in buffer solution at pH 5 ([2]; pH 5, 37° C., up to 2 or 3 hours): unstable
Production rate of Alvocidib ([2]; pH5.0, 0.5 hr): 2.2%
Residual rate ([2]; pH5.0, 0.5 hr): 96.0%
Production rate of Alvocidib ([2]; pH5.0, 1 hr): 4.1%
Residual rate ([2]; pH5.0, 1 hr): 94.0%
Production rate of Alvocidib ([2]; pH5.0, 2 hr): 8.3%
Residual rate ([2]; pH5.0, 2 hr): 90.8%
Production rate of Alvocidib ([2]; pH5.0, 3 hr): 12.3%
Residual rate ([2]; pH5.0, 3 hr): 86.5%
Production rate of Alvocidib ([2]; pH5.5, 0 hr): 0.0%
Residual rate ([2]; pH5.5, 0 hr): 98.3%
Production rate of Alvocidib ([2]; pH5.5, 0.5 hr): 6.5%
Residual rate ([2]; pH5.5, 0.5 hr): 91.3%
Production rate of Alvocidib ([2]; pH5.5, 1 hr): 11.9%
Residual rate ([2]; pH5.5, 1 hr): 85.5%
Production rate of Alvocidib ([2]; pH5.5, 2 hr): 22.6%
Residual rate ([2]; pH5.5, 2 hr): 73.9%
Production rate of Alvocidib ([2]; pH5.5, 3 hr): 32.2%
Residual rate ([2]; pH5.5, 3 hr): 64.7%
Production rate of Alvocidib ([2]; pH6.0, 0 hr): 0.0%
Residual rate ([2]; pH6.0, 0 hr): 98.7%
Production rate of Alvocidib ([2]; pH6.0, 0.5 hr): 23.8%
Residual rate ([2]; pH6.0, 0.5 hr): 72.9%
Production rate of Alvocidib ([2]; pH6.0, 1 hr): 40.3%
Residual rate ([2]; pH6.0, 1 hr): 56.3%
Production rate of Alvocidib ([2]; pH6.0, 2 hr): 63.0%
Residual rate ([2]; pH6.0, 2 hr): 30.4%
Production rate of Alvocidib ([2]; pH6.0, 3 hr): 75.5%
Residual rate ([2]; pH6.0, 3 hr): 16.8%
Production rate of Alvocidib ([2]; pH6.5, 0 hr): 0.2%
Residual rate ([2]; pH6.5, 0 hr): 99.5%
Production rate of Alvocidib ([2]; pH6.5, 0.5 hr): 51.7%
Residual rate ([2]; pH6.5, 0.5 hr): 42.2%
Production rate of Alvocidib ([2]; pH6.5, 1 hr): 73.5%
Residual rate ([2]; pH6.5, 1 hr): 20.0%
Production rate of Alvocidib ([2]; pH6.5, 2 hr): 87.1%
Residual rate ([2]; pH6.5, 2 hr): 3.8%
Production rate of Alvocidib ([2]; pH6.5, 3 hr): 90.0%
Residual rate ([2]; pH6.5, 3 hr): 0.9%
Production rate of Alvocidib ([2]; pH7.0, 0 hr): 0.5%
Residual rate ([2]; pH7.0, 0 hr): 97.8%
Production rate of Alvocidib ([2]; pH7.0, 0.5 hr): 82.2%
Residual rate ([2]; pH7.0, 0.5 hr): 9.3%
Production rate of Alvocidib ([2]; pH7.0, 1 hr): 89.7%
Residual rate ([2]; pH7.0, 1 hr): 1.3%
Production rate of Alvocidib ([2]; pH7.0, 2 hr): 91.0%
Residual rate ([2]; pH7.0, 2 hr): 0.0%
Production rate of Alvocidib ([2]; pH7.0, 3 hr): 91.0%
Residual rate ([2]; pH7.0, 3 hr): 0.0%
Production rate of Alvocidib ([2]; pH7.4, 0 hr): 1.3%
Residual rate ([2]; pH7.4, 0 hr): 97.2%
Production rate of Alvocidib ([2]; pH7.4, 0.5 hr): 90.5%
Residual rate ([2]; pH7.4, 0.5 hr): 0.8%
Production rate of Alvocidib ([2]; pH7.4, 1 hr): 91.2%
Residual rate ([2]; pH7.4, 1 hr): 0.0%
Production rate of Alvocidib ([2]; pH7.4, 2 hr): 91.4%
Residual rate ([2]; pH7.4, 2 hr): 0.0%
Production rate of Alvocidib ([2]; pH7.4, 3 hr): 92.1%
Residual rate ([2]; pH7.4, 3 hr): 0.0%

From US12617779B2, “Self degradation-type CDK9 inhibitor prodrug and liposome encapsulating same” (Sumitomo Pharma Co., Ltd., priority 2021, dated 2026)
